What was measured:
Mus musculus = test: Epileptogenic activity in mouse, icv; assay type: functional
[1] = Displacement of [3H]kainic acid from Kainate receptor in rat synaptic membrane; assay type: cell membranes
[2] = Displacement of [3H]AMPA from AMPA receptor in rat synaptic membrane; assay type: cell membranes

Structure (SMILES) | ED50 (Mus musculus) [pmol] | Ki [1] [nM] | Ki [2] [nM]
N[C@@H](C[C@]1(C(=O)O)C[C@H]2O[C@H](CO)[C@@H](O)[C@@H](O)[C@H]2O1)C(=O)O [10-HYDROXY-METHYL-NEODYSIHERBAINE A] | 110 | 790 | 153
CN[C@H]1[C@H]2O[C@@](C[C@H](N)C(=O)O)(C(=O)O)C[C@H]2OC[C@H]1O [DYSIHERBAINE] | 13 | 26 | 153
N[C@@H](C[C@]1(C(=O)O)C[C@H]2OC[C@@H](O)[C@@H](O)[C@H]2O1)C(=O)O [NEODYSIHERBAINE A] | 16 | 52 | 151
